Laboratory results published in publication PMC3641313 (Korean Journal of Pediatrics, 2013).
Entries after “also recorded” stand apart in the source; their conditions may differ. Where two headings read alike, the source gives them in different places.

Tested on: viral NA of influenza A/H1N1
Type: biochemical, influenza A/H1N1 virus

Structure (SMILES)	sensitivity or resistance of isolates by IC50 criteria (A/H1N1, first study period, both groups, […])	sensitivity or resistance of isolates by IC50 criteria (A/H1N1, second study period, both groups, […])	resistance of influenza A/H1N1 isolates	sensitivity or resistance of isolates by IC50 criteria
CCOC(=O)C1=C[C@@H](OC(CC)CC)[C@H](NC(C)=O)[C@@H](N)C1 [Oseltamivir]	sensitivity	high-level drug resistance		
CC(=O)N[C@H]1[C@H]([C@H](O)[C@H](O)CO)OC(C(=O)O)=C[C@@H]1N=C(N)N [Zanamivir]			no zanamivir resistance	sensitivity; also recorded: sensitive
